Read-outs that look alike come from different tables or passages of the source. No end group written: not given here.
Assays:
GPR15 (human) = target: T1, GPR15 (human) (UniProt P49685)
T1 sequence: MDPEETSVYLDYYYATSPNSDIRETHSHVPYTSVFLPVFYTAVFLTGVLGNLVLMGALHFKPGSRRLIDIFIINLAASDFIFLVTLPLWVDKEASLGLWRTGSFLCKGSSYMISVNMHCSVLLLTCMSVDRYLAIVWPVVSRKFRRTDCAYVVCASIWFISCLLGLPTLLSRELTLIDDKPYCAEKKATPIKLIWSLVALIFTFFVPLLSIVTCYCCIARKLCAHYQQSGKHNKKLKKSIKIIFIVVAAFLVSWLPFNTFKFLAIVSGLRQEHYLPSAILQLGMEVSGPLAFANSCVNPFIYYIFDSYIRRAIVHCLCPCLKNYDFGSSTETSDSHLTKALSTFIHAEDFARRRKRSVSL

GPR151 = assay: Repeat of proposed literature pairing (mass redistribution and/or internalization); assay type: cell-based, human
From the text: (§1) DMR assays provide a single integrated readout of ligand-dependent cellular response, utilizing an optical biosensor in specialized microplates to detect wavelength shifts of reflected light as it passes through the biosensor and the lower portion of the cell (∼150-200 nm). As a signal pathway agnostic approach, DMR assays are well-suited to the study of GPCRs ([Fang et al., 2008], [Schröder et al., 2011]). The mass redistribution response (Δ picometer (pm)) likely reflects a number of intracellular events, including cytoskeletal rearrangement, protein trafficking and receptor internalization. Orphan receptor-expressing cells were gently washed twice with assay buffer (HBSS with 1 mM CaCl2, 1 mM MgCl2, 20 mM HEPES, 0.01% pluronic F-68, pH 7.4) containing 0.1% DMSO and cells were equilibrated for 90 min at 22°C in the EPIC Benchtop (BT) System (Corning) to establish a stable DMR signal. After 3-5 min baseline recordings, peptides (10 μM) were added in duplicate wells using an electronic 384-channel Viaflo pipette (Integra Biosciences, Switzerland) and DMR responses were measured for 60 min at 22°C. 100 nM norepinephrine was included as an internal assay control to assess the cellular DMR response via endogenously-expressed adrenoceptors in the TREx 293 cells. Real-time data were processed using the BT to column converter MS-Excel macro (Corning) and analyzed in GraphPad Prism 7.0. DMR recordings in peptide screening experiments were buffer and solvent corrected and the area under the curve (AUC) was quantified. For subsequent validation experiments, peptides were diluted in assay buffer containing 0.1% DMSO and DMR assays were performed as above. […] Data represent mean ± standard error of the mean (SEM) from at least 3 biologically independent experiments.
(§2) A TR-FRET real-time internalization assay was used to examine peptide-dependent changes in orphan receptor localization as described previously ([Foster and Bräuner-Osborne, 2018]). Surface-expressed SNAP-tagged receptors were labeled with a cell-impermeable luminescent terbium cryptate (100 nM SNAP Lumi4-Tb; Cisbio, France) for 1 hr at 37°C. Cells were washed to remove excess terbium and incubated with fluorescein-O-acetic acid (100 μM; Sigma Aldrich) for 5 min at 37°C. Peptides were added as for DMR assays, and internalization responses were recorded for 60 min at 37°C using an EnVision 2104 Multimode plate reader (PerkinElmer). 100 nM GLP-1 was used as a positive control for SNAP-GLP1R internalization. Real-time internalization responses were calculated based on TR-FRET (excitation 340 nm; emission 520 nm and 615 nm), and were expressed as the ratio between donor (terbium) and acceptor (fluorescein) emission. For peptide screening analysis (both DMR and internalization assays), we calculated the area under the curve from the real-time traces. As the magnitude of the responses was variable between orphan receptor targets, particularly for the SNAP-tag based internalization assay where the signal is dependent on receptor surface expression, the AUC values were normalized to their respective plate averages and expressed as fold change. Validation experiments for receptor internalization were performed as above. Internalization data was processed in MS-Excel and area under the curve was used to generate concentration-response curves using GraphPad Prism 7.0. Data represent mean ± standard error of the mean (SEM) from at least 3 biologically independent experiments.

human GPCRs = tested on: human GPCRs; design: method as in Guide to Pharmacology database; conditions: max reported value, ref Guide to Pharmacology database, cited from earlier work
From the text: Supplement mmc1.xlsx, sheet "HumanGPCRLigands" | column: pKi_value; pKd_value; pEC50_value; pIC50_value

P2RY10 = assay: Repeat of proposed literature pairing (mass redistribution and/or internalization); assay type: cell-based, human; conditions: for receptor-dependent activation by proposed ligand, P2RY10: repeat of literature pairing across multiple assays, Figure S7A, Tables S5 and S7
From the text: as §1, §2

[1] = target: T2, melanocortin MC4 receptor (Homo sapiens, UniProt P32245); assay: β-arrestin recruitment (Tango), known peptide receptors; assay type: cell-based; conditions: MC4R; mean, n = 3
T2 construct: host or cells: HTLA cells (HEK293-derived)
T2 sequence (P32245 whole entry): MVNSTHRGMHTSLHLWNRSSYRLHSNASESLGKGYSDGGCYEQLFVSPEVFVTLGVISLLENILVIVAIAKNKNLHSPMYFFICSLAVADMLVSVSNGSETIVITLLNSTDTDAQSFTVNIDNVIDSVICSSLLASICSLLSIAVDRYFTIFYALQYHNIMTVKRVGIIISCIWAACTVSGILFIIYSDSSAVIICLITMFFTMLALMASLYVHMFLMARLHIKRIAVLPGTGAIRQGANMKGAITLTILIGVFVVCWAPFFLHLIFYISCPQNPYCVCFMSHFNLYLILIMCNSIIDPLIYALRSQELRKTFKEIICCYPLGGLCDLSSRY
Description: (§3) The peptide library was additionally screened against 120 GPCR targets in parallel, including all available orphan receptors and 27 known class A peptide receptors using the Tango assay platform ([Kroeze et al., 2015]). Briefly, HTLA cells (a HEK293 cell line stably expressing a tTA-dependent luciferase reporter and a β-arrestin2-TEV fusion gene) were plated 10,000 cells/well in poly-L-lysine–coated clear-bottom white 384-well plates in DMEM supplemented with 10% FBS, 100 U/ml penicillin and 100 μg/ml streptomycin, 2 μg/ml puromycin and 100 μg/ml hygromycin B. 24 hr later, cells were transfected with Tango GPCR constructs using the calcium phosphate method ([Jordan et al., 1996]). The next day, culture medium was changed to DMEM + 1% dFBS and 10 μM peptides were added for overnight stimulation. Bright-Glo solution (Promega) was incubated for 15–20 min at room temperature, and luminescence was counted using a Trilux luminescence counter (Wallac).
(§4) For subsequent peptide validation experiments using Tango assays, HTLA cells were transiently transfected in 10 cm dishes with the receptor of interest using polyethylenimine (PEI) ([Longo et al., 2013]). After 24 hr, 25,000 cells/well were plated in clear bottom, white-walled 384-well plates. Assays were performed as described above, with luminescence measured using an EnSpire 2300 Multimode plate reader (PerkinElmer). Luminescence counts were exported into Excel and were analyzed using GraphPad Prism 7.

GPR32 = assay: Repeat of proposed literature pairing (mass redistribution and/or internalization); assay type: cell-based, human
From the text: as §1, §2

GPR83 = assay: as above; assay type: cell-based, human
From the text: as §1, §2

GPR19 = assay: as above; assay type: cell-based, human
GPR176 = target: T3, GPR176 (Homo sapiens, UniProt Q14439); assay: β-arrestin recruitment (Tango), indicative pairing; assay type: cell-based; conditions: mean, n = 3
T3 construct: host or cells: HTLA cells (HEK293-derived)
T3 sequence (Q14439 1-515): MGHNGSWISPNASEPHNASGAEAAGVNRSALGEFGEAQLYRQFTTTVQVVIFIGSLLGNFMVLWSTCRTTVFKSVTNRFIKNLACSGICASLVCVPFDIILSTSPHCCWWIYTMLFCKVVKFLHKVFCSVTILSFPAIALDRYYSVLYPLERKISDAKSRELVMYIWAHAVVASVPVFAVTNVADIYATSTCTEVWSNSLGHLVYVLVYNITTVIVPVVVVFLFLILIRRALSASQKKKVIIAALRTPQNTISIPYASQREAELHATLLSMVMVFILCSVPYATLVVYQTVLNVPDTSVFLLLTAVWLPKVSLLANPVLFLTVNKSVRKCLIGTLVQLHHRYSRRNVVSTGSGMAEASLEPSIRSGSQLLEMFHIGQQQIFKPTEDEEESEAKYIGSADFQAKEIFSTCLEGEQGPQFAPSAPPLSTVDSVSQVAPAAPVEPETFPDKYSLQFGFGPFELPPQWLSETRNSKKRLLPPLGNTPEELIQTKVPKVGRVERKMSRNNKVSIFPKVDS
Description: as §3, §4

GPR37 = assay: Repeat of proposed literature pairing (mass redistribution and/or internalization); assay type: cell-based, human
From the text: as §1, §2

GPR37L1 = assay: as above; assay type: cell-based, human
From the text: as §1, §2

[2] = repeat of literature pairing, Figure S7A, Tables S5 and S7
[3] = receptor galr1_human (GALR1, P47211)
[4] = receptor galr2_human (GALR2, O43603)
[5] = receptor galr3_human (GALR3, O60755)

## 45-amino acid cleavage variant of GPR15L (peptide)
GPR15 (human)
  fold improved potency at GPR15 against the 11-amino acid peptide 64 (assay not given): 10 fold

## galanin [reference compound]
GPR151; repeat of literature pairing
  Peptide pairing for orphan receptor GPR151 (confirmed/unconfirmed): Unconfirmed peptide pairings for orphans
GPR151; [2]
  receptor-dependent activation by proposed ligand, GPR151: no activity
GPR151; target GPR151
  Comment (response in DMR / internalization assays): Galanin is included in library (peptide 177) and was purchased separately. No response in any assay.
GPR151; target GPR151, reported ligand tested on receptor-expressing cell line
  Active in DMR/internalization: No
Human GPCRs; [3]
  pIC50_value: 9.9
  pKi_value: 10.5
Human GPCRs; [4]
  pEC50_value: 9.1
  pIC50_value: 9.3
  pKi_value: 9.1
Human GPCRs; [5]
  pIC50_value: 7.1
  pKi_value: 7.2

## lysophosphatidic acid
P2RY10
  receptor-dependent activation by proposed ligand, P2RY10: no activity

## HSQGTFTSDYSKYLDS [Peptide 110]
[1]
  Emax, Tango (fold over basal): 4.2 fold over basal
  pEC50, Tango (fold over basal): 5.93

## CC/C=C\C[C@H](O)/C=C/C=C\C=C\C=C\[C@@H](O)[C@@H](O)C/C=C\CCC(=O)O [resolvin D1]
GPR32; [2]
  receptor-dependent activation by proposed ligand, GPR32: no activity
GPR32; target GPR32
  Comment (response in DMR / internalization assays): No response in any assay
GPR32; target GPR32, reported ligand tested on receptor-expressing cell line
  Active in DMR/internalization: No
Human GPCRs; receptor fpr2_human (FPR2, P25090)
  pEC50_value: 11.9
Human GPCRs; receptor gpr32_human (GPR32), Class A orphans
  pEC50_value: 11.1

## PEN: neuroendocrine peptide PEN, proposed GPR83 ligand (AADHDVGSELPPEGVLGALLRV)
GPR83; repeat of literature pairing
  Peptide pairing for orphan receptor GPR83 (confirmed/unconfirmed): Confirmed peptide pairings for orphans
GPR83; repeat of literature pairing across multiple assays, Figure S7A, Tables S5 and S7
  receptor-dependent activation by proposed ligand, GPR83: selective receptor-dependent activation
GPR83; target GPR83
  Comment (response in DMR / internalization / Tango assays): PEN is included in library (peptide 146) and was purchased separately. Active in DMR, inactive in internalization, but also active in Tango
GPR83; target GPR83, reported ligand tested on receptor-expressing cell line
  Active in DMR/internalization: Yes (DMR)

## adropin (CHSRSADVDSLSESSPNSSPGPCPEKAPPPQKPSHEGSYLLQP; not fully specified; cysteine pairing not given here; UniProt Q6UWT2 34-76, looked up) [proposed GPR19 ligand]
GPR19; repeat of literature pairing
  Peptide pairing for orphan receptor GPR19 (confirmed/unconfirmed): Unconfirmed peptide pairings for orphans
GPR19; [2]
  receptor-dependent activation by proposed ligand, GPR19: no activity
GPR19; target GPR19
  Comment (response in DMR / internalization assays): No response in any assay
GPR19; target GPR19, reported ligand tested on receptor-expressing cell line
  Active in DMR/internalization: No

## ELEGEQPDGLEHVLEPDTEKADGPYRVEHFRWGNPPKD [Peptide 205]
[1]
  Emax, Tango (fold over basal): 4.9 fold over basal
  pEC50, Tango (fold over basal): 6.21

## RSVNPYLQ [Peptide 32]
GPR176
  Emax, Tango (fold over basal): 2.3 fold over basal
  pEC50, Tango (fold over basal): 5.82

## CC/C=C\C[C@H](O)/C=C/C=C\C=C\C=C\[C@@H](O)[C@@H](O)C/C=C\CCC(=O)O [RvD1]
GPR32; repeat of literature pairing
  Lipid pairing for orphan receptor GPR32 (confirmed/unconfirmed): Unconfirmed lipid pairings for orphans

## prosaptide
GPR37; repeat of literature pairing
  Peptide pairing for orphan receptor GPR37 (confirmed/unconfirmed): Unconfirmed peptide pairings for orphans
GPR37; [2]
  receptor-dependent activation by proposed ligand, GPR37: no activity
GPR37; target GPR37
  Comment (response in DMR / internalization assays): No response in any assay
GPR37; target GPR37, reported ligand tested on receptor-expressing cell line
  Active in DMR/internalization: No
GPR37L1; repeat of literature pairing
  Peptide pairing for orphan receptor GPR37L1 (confirmed/unconfirmed): Unconfirmed peptide pairings for orphans
GPR37L1; [2]
  receptor-dependent activation by proposed ligand, GPR37L1: no activity
GPR37L1; target GPR37L1
  Comment (response in DMR / internalization assays): No response in any assay
GPR37L1; target GPR37L1, reported ligand tested on receptor-expressing cell line
  Active in DMR/internalization: No

## lysophosphatidylserine [LPS]
P2RY10; repeat of literature pairing
  Lipid pairing for orphan receptor P2RY10 (confirmed/unconfirmed): Confirmed lipid pairings for orphans
P2RY10
  receptor-dependent activation by proposed ligand, P2RY10: selective receptor-dependent activation
P2RY10; listed as lysophosphatidylserine
  receptor-dependent activation by proposed ligand, P2RY10: marginal
Human GPCRs; receptor gp174_human (GPR174), Class A orphans
  pEC50_value: 7.1
Human GPCRs; receptor gpr34_human (GPR34), Class A orphans
  pEC50_value: 6.9

## peptide 64 (GPR15L_(47-57))
GPR15 (human)
  pEC50 of reduced cyclic AMP (cAMP) production (Gi/o): 6.72 pEC50

B1: GPR15L (ligand)
peptide: KRRPAKAWSGRRTRLCCHRVPSPNSTNLKGHHVRLCKPCKLEPEPRLWVVPGALPQV
modifications: disulfide (positions not given here)
GPR15 (human)
  fold improved potency at GPR15 against the 11-amino acid peptide 64 (assay not given): 100 fold
